Consider 13 molecules from ChEMBL document CHEMBL1799975 (J Med Chem, 2011).

For orientation: logD means the decadic logarithm of the distribution of all forms, ionised or not, between an organic phase and buffer at a given pH. Usually AUC stands for the area under the concentration-time curve, a measure of exposure. A lower AUC goes with low exposure. The term MRT denotes a mean duration of stay, worked out from the concentration-time curve. The bioavailability is the share of a dose that reaches the circulation, judged against a reference dose that is usually intravenous. Low values mean little systemic uptake, high ones much systemic uptake. In general, Cmax refers to the maximum level reached in the sampled fluid or tissue.

Data set [1] can be described thus: Lipophilicity, log D of the compound at pH 7.4 by HPLC analysis. It counts as physicochemical. As to conditions: buffer.
Data set [2] can be described thus: AUC in rat at 0.1 mg/kg, po by LC-MS-MS analysis. The class given is ADME, organism-based. Set-up: dose 0.1 mg/kg, route oral. Conditions: plasma.
The nature of data set [3]: Ratio of drug level in brain to plasma of rat at 0.2 mg/kg, iv after 30 mins by LC-MS-MS analysis. The class given is ADME, organism-based. Set-up: dose 0.2 mg/kg, route intravenous. Conditions: read-out: BPR.
A short description of data set [4]: Drug level in rat plasma at 0.2 mg/kg, iv after 15 mins by LC-MS-MS analysis. The class given is ADME, organism-based. The arrangement: dose 0.2 mg/kg, route intravenous.
The nature of data set [5]: Drug level in rat brain at 0.2 mg/kg, iv after 15 mins by LC-MS-MS analysis. It counts as ADME, organism-based. Set-up: dose 0.2 mg/kg, route intravenous. Conditions: read-out: Drug uptake.
The nature of data set [6]: Volume of distribution at steady state in rat at 0.1 mg/kg, iv by LC-MS-MS analysis. It counts as ADME, organism-based. The arrangement: dose 0.1 mg/kg, route intravenous. Conditions: in vivo, read-out: Vdss.
The nature of data set [7]: Mean residence time in rat at 0.1 mg/kg, po by LC-MS-MS analysis. The class given is ADME, organism-based. Set-up: dose 0.1 mg/kg, route oral. As to conditions: in vivo.
Data set [8] in a line: Ratio of drug level in brain to plasma of rat at 0.2 mg/kg, iv after 15 mins by LC-MS-MS analysis. The class given is ADME, organism-based. The arrangement: dose 0.2 mg/kg, route intravenous. As to conditions: read-out: BPR.
Data set [9] in a line: Oral bioavailability in rat at 0.1 mg/kg by LC-MS-MS analysis. It counts as ADME, organism-based. As to conditions: in vivo.
Data set [10] can be described thus: Cmax in rat at 0.1 mg/kg, iv by LC-MS-MS analysis. The class given is ADME, organism-based. Set-up: dose 0.1 mg/kg, route intravenous. Conditions: in vivo.
Data set [11] in a line: Drug level in rat plasma at 0.2 mg/kg, iv after 30 mins by LC-MS-MS analysis. The class given is ADME, organism-based. Set-up: dose 0.2 mg/kg, route intravenous.
A short description of data set [12]: Drug level in rat brain at 0.2 mg/kg, iv after 30 mins by LC-MS-MS analysis. The class given is ADME, organism-based. Conditions: read-out: Drug uptake. The arrangement: dose 0.2 mg/kg, route intravenous.

For the molecule `CC(=O)NCCC1=C(c2ccccc2)Cc2ccc3c(c21)CCO3`, the logD in [1] amounted to 3.49.
On the same count and under the same terms, next, `CC(=O)NCCc1c(-c2ccccc2)nc2ccc3c(n12)CCO3`: 1.66.
Still for that read-out and setting: next, `CC(=O)NCCn1c(-c2ccccc2)nc2ccc3c(c21)CCO3`: 1.39; `CC(=O)NCCc1c(-c2ccccc2)nn2ccc3c(c12)CCO3`: 2.04.
`CC(=O)NCCc1c(C)nn2ccc3c(c12)CCO3` showed a logD in data set [1] of 1.04.
Same read-out and setting: next, `CCC(=O)NCCc1c(C)nn2ccc3c(c12)CCO3`: 1.39.
As to `CCc1nn2ccc3c(c2c1CCNC(C)=O)CCO3`, the AUC in data set [2] was 14.4 ng·h/mL. Also, in [3], the Kp at 0.5 h turned out to be 0.22. Also, the figures for the concentration at […] in [4] and in data set [5] were 83.2 ng/mL and 23.7 ng/g, respectively. Also, in data set [6], the Vd came to 0.664 L/kg. In [7], the MRT amounted to 57 min. The Kp at […] in data set [8] was 0.28. Further, the bioavailability in data set [9] was determined as 19.7%. This molecule gave a logD in [1] of 1.48. The highest concentration (Cmax) in data set [10] amounted to 12.4 ng/mL. The results for the concentration at 0.5 h in data set [11] and in [12] were 55.9 ng/mL and 12.4 ng/g, respectively.
Consider `CCC(=O)NCCc1c(CC)nn2ccc3c(c12)CCO3`, for which the pH-dependent lipophilicity (logD) in [1] worked out at 1.71.
The same measure, in the same setting: next, `CC(=O)NCCc1c(C2CC2)nn2ccc3c(c12)CCO3`: 1.61; `CCC(=O)NCCc1c(C2CC2)nn2ccc3c(c12)CCO3`: 1.89.
Still for that read-out and setting: next, `CC(=O)NCCc1c(C(F)(F)F)nn2ccc3c(c12)CCO3`: 1.64.
Same read-out and setting: next, `CCC(=O)NCCc1c(C(F)(F)F)nn2ccc3c(c12)CCO3`: 1.94; `COc1ccc2[nH]cc(CCNC(C)=O)c2c1` [MELATONIN]: 0.5.
